PMC4708007 (Bioscience Reports, 2015)

Molecular target: T1, FtRelA (Francisella tularensis, UniProt Q5NEV0)
T1 construct: gene relA
Assay: biochemical

T1 sequence (Q5NEV0 1-647 limits assumed): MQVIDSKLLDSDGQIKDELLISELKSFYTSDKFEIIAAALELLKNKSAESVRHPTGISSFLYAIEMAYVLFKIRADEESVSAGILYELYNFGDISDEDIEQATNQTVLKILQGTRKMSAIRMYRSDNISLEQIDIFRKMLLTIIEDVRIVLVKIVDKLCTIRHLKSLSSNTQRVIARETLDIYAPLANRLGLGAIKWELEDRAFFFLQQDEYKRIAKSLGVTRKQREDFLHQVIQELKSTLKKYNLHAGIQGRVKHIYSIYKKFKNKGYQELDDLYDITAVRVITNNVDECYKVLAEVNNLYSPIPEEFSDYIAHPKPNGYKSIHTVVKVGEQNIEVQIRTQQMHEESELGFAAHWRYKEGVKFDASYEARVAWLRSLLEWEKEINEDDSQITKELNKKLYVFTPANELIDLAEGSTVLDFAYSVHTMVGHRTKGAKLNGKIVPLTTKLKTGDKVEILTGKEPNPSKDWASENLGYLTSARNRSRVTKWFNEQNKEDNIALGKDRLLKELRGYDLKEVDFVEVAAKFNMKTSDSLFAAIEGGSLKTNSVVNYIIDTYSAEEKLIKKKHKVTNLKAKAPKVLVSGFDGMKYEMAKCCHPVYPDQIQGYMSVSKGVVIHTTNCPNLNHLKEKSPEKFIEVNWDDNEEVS

With `Nc1nc2c(ncn2[C@@H]2O[C@H](COP(=O)(O)OP(=O)(O)O)[C@@H](OP(=O)(O)OP(=O)(O)O)[C@H]2O)c(=O)[nH]1` [ppGpp] the EC50 was 60 ± 1.9 µM.
